# Source: PubChem BioAssay (NCI)
#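 Results reflect a 48-hour exposure of cells in 96-well plates to compound at five concentrations. GI50: concentration for 50% inhibition of growth. TGI: total growth inhibition.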
# Experiments:
# Assay in all cases: NCI-60 cell line screen, 48 h
# U251 CNS = test system: U251 CNS
# SW-620 colon = test system: SW-620 colon
# SK-MEL-2 melanoma = test system: SK-MEL-2 melanoma
# EKVX NSCLC = test system: EKVX NSCLC
# NCI-H23 lung = test system: NCI-H23 lung
# NCI-H522 lung = test system: NCI-H522 lung
# NCI-H460 lung = test system: NCI-H460 lung
# LOX IMVI melanoma = test system: LOX IMVI melanoma
# OVCAR-5 ovarian = test system: OVCAR-5 ovarian
# OVCAR-8 ovarian = test system: OVCAR-8 ovarian
Structure (SMILES),TGI (U251 CNS) [µM],TGI (SW-620 colon) [µM],TGI (SK-MEL-2 melanoma) [µM],TGI (EKVX NSCLC) [µM],TGI (NCI-H23 lung) [µM],TGI (NCI-H522 lung) [µM],TGI (NCI-H460 lung) [µM],TGI (LOX IMVI melanoma) [µM],TGI (OVCAR-5 ovarian) [µM],TGI (OVCAR-8 ovarian) [µM],GI50 (U251 CNS) [µM],GI50 (SW-620 colon) [µM],GI50 (SK-MEL-2 melanoma) [µM],GI50 (EKVX NSCLC) [µM],GI50 (NCI-H23 lung) [µM],GI50 (NCI-H522 lung) [µM],GI50 (NCI-H460 lung) [µM],GI50 (LOX IMVI melanoma) [µM],GI50 (OVCAR-5 ovarian) [µM],GI50 (OVCAR-8 ovarian) [µM]
COc1cc(/C=N/N=C(\N)NO)ccc1O,> 100,> 100,> 100,> 100,> 100,> 100,> 100,> 100,90.3,> 100,,,,,,,,,,
CC(C)C(=O)Nc1ccc(-c2nc(-c3cccc(OCCN4CCOCC4)c3)c(-c3ccnc(Br)c3)[nH]2)cc1,14.5,8.59,5.54,> 100,18,48.7,25.4,3.57,> 100,> 100,2.27,2.87,2.21,4.01,3.12,3.26,3.98,1.7,6.42,4.16
CC(C)NC(=O)OCc1nnn2c1CCC2,> 100,> 100,> 100,> 100,> 100,> 100,> 100,> 100,> 100,> 100,,,,,,,,,,
O=c1ccc2c(Cl)cccc2o1,> 100,> 100,> 100,> 100,> 100,> 100,> 100,> 100,> 100,> 100,,,,,,,,,,
CSC1=C(SC)C(=O)c2cn(C)c(=O)cc2C1=O,26.2,2.58,17.1,33.6,11.1,2.19,32,3.91,35.2,> 70.9,,,,,,,,,,
CC(C(=O)NCCNC(=O)CCCC(=O)N(C)O)C(=O)NCCNC(=O)CCCC(=O)N(C)O,> 100,> 100,> 100,> 100,> 100,> 100,> 100,> 100,> 100,> 100,,,,,,,,,,
C1=Nc2ccccc2Cn2nncc21,> 100,> 100,> 100,> 100,> 100,> 100,> 100,> 100,> 100,> 100,,,,,,,,,,
OC(c1ccccc1)C1CC2C=CC1C2 (stereo not given),> 100,> 100,> 100,> 100,> 100,> 100,> 100,> 100,> 100,> 100,,,,,,,,,,
COc1ccc(N2C(=O)C(=O)N(C)C2=O)c2ccccc12,> 10,> 10,> 10,> 10,> 10,> 10,> 10,> 10,> 10,> 10,,,,,,,,,,
COC1=CC(=O)c2c(c(COC(C)=O)cn2C)C1=O,0.734,0.193,0.373,0.727,0.417,0.0405,0.835,0.431,0.0689,0.313,,,,,,,,,,
CC1(CO)C(O)CCC2(C)C1C(O)CC1CC3CC12CCC3(O)CO (stereo not given),> 225,> 225,> 225,> 225,> 225,> 225,> 225,> 225,> 225,> 225,,,,,,,,,,
Fc1ccc(Nc2ncc(-c3cc(F)c(Cl)cc3Cl)s2)cc1Cl,23.7,24.9,57.9,31.3,28.1,44.3,9.61,96,30.5,64.2,6.09,5.47,22.8,16.3,14.1,20.8,2.98,9.08,15.8,20.1
